Values joined by “and” are separate entries in the source; they are usually repeats but may differ in a detail not shown here. Identical values can stand only once.
system: SARS-CoV-2; test: microbe, parasite or virus in culture; type: cell-based; conditions: not given

Row | Compound | Average Infection (1 uM) | Average Infection (5 uM)
1 | CC(C)N1CCN(Cc2cnc(-c3cc(-c4cccc5[nH]ccc45)cc4[nH]ncc34)o2)CC1 [GSK2269557, nemiralisib] | −0.7144 | −3.347
2 | CC(C)(C)c1cc(C(C)(C)C)c(NC(=O)c2c[nH]c3ccccc3c2=O)cc1O [Ivacaftor, ivacaftor] | −0.9235 | −0.9409

same assay, conditions: 1 uM

Row | Compound | HIT (2 Std, 1 uM)
3 | CC(C)N1CCN(Cc2cnc(-c3cc(-c4cccc5[nH]ccc45)cc4[nH]ncc34)o2)CC1 [GSK2269557, nemiralisib] | HIT
4 | CC(C)(C)c1cc(C(C)(C)C)c(NC(=O)c2c[nH]c3ccccc3c2=O)cc1O [Ivacaftor, ivacaftor] | HIT

same assay, conditions: 1 uM, single replicate of triplicate

Row | Compound | % Infection (1 uM)
5 | CC(C)N1CCN(Cc2cnc(-c3cc(-c4cccc5[nH]ccc45)cc4[nH]ncc34)o2)CC1 [GSK2269557, nemiralisib] | 17.26% and 15.32% and 15.51%

same assay, conditions: 1 uM, single replicate, relative to negative control DMSO

Row | Compound | Normalized Infection (1 uM) | log2FC Infection (1 uM)
6 | CC(C)N1CCN(Cc2cnc(-c3cc(-c4cccc5[nH]ccc45)cc4[nH]ncc34)o2)CC1 [GSK2269557, nemiralisib] | 0.6572 and 0.5833 and 0.5904 | −0.6055 and −0.7776 and −0.7601

same assay, conditions: 5 uM

Row | Compound | HIT (2 Stdv, 5 uM)
7 | CC(C)N1CCN(Cc2cnc(-c3cc(-c4cccc5[nH]ccc45)cc4[nH]ncc34)o2)CC1 [GSK2269557, nemiralisib] | HIT
8 | CC(C)(C)c1cc(C(C)(C)C)c(NC(=O)c2c[nH]c3ccccc3c2=O)cc1O [Ivacaftor, ivacaftor] | HIT

same assay, conditions: 5 uM, single replicate of triplicate

Row | Compound | % Infection (5 uM)
9 | CC(C)N1CCN(Cc2cnc(-c3cc(-c4cccc5[nH]ccc45)cc4[nH]ncc34)o2)CC1 [GSK2269557, nemiralisib] | 1.292% and 0.4698% and 5.713%

same assay, conditions: 5 uM, single replicate, relative to negative control DMSO

Row | Compound | Normalized Infection (5 uM) | log2FC Infection (5 uM)
10 | CC(C)N1CCN(Cc2cnc(-c3cc(-c4cccc5[nH]ccc45)cc4[nH]ncc34)o2)CC1 [GSK2269557, nemiralisib] | 0.08388 and 0.03051 and 0.371 | −3.575 and −5.034 and −1.43

same assay, conditions: Severe acute respiratory syndrome coronavirus 2, 1 uM, single replicate, relative to negative control DMSO; read-out: Normalized Infection (1 uM)

Row | Compound | activity at 1 µM
11 | CC(C)(C)c1cc(C(C)(C)C)c(NC(=O)c2c[nH]c3ccccc3c2=O)cc1O [Ivacaftor, ivacaftor] | 59.8%

same assay, conditions: Severe acute respiratory syndrome coronavirus 2, 5 uM, single replicate, relative to negative control DMSO; read-out: Normalized Infection (5 uM)

Row | Compound | activity at 5 µM
12 | CC(C)(C)c1cc(C(C)(C)C)c(NC(=O)c2c[nH]c3ccccc3c2=O)cc1O [Ivacaftor, ivacaftor] | 60.9%

same assay, conditions: overall, 1 or 5 uM

Row | Compound | HIT
13 | CC(C)N1CCN(Cc2cnc(-c3cc(-c4cccc5[nH]ccc45)cc4[nH]ncc34)o2)CC1 [GSK2269557, nemiralisib] | Yes
14 | CC(C)(C)c1cc(C(C)(C)C)c(NC(=O)c2c[nH]c3ccccc3c2=O)cc1O [Ivacaftor, ivacaftor] | Yes

system: not given; test: not given; conditions: 1 uM

Row | Compound | Toxic (1 uM)
15 | CC(C)N1CCN(Cc2cnc(-c3cc(-c4cccc5[nH]ccc45)cc4[nH]ncc34)o2)CC1 [GSK2269557, nemiralisib] | 0 (non-toxic (Normalized Cell number>0.65)

same assay, conditions: 5 uM

Row | Compound | Toxic (5 uM)
16 | CC(C)N1CCN(Cc2cnc(-c3cc(-c4cccc5[nH]ccc45)cc4[nH]ncc34)o2)CC1 [GSK2269557, nemiralisib] | 0 (non-toxic (Normalized Cell number>0.65)
17 | CC(C)(C)c1cc(C(C)(C)C)c(NC(=O)c2c[nH]c3ccccc3c2=O)cc1O [Ivacaftor, ivacaftor] | 0 (non-toxic (Normalized Cell number>0.65)

same assay, conditions: compound at 1 uM, average of normalized cell number, n=3, relative to DMSO

Row | Compound | Average Cell Number (1 uM)
18 | CC(C)N1CCN(Cc2cnc(-c3cc(-c4cccc5[nH]ccc45)cc4[nH]ncc34)o2)CC1 [GSK2269557, nemiralisib] | 0.8919
19 | CC(C)(C)c1cc(C(C)(C)C)c(NC(=O)c2c[nH]c3ccccc3c2=O)cc1O [Ivacaftor, ivacaftor] | 0.6354

same assay, conditions: compound at 1 uM, single replicate, raw cell count

Row | Compound | Cell Number (1 uM)
20 | CC(C)N1CCN(Cc2cnc(-c3cc(-c4cccc5[nH]ccc45)cc4[nH]ncc34)o2)CC1 [GSK2269557, nemiralisib] | 4831 and 5665 and 5184
21 | CC(C)(C)c1cc(C(C)(C)C)c(NC(=O)c2c[nH]c3ccccc3c2=O)cc1O [Ivacaftor, ivacaftor] | 3730 and 3662 and 3779

same assay, conditions: compound at 1 uM, single replicate, relative to negative control DMSO

Row | Compound | Normalized Cell Number (1 uM)
22 | CC(C)N1CCN(Cc2cnc(-c3cc(-c4cccc5[nH]ccc45)cc4[nH]ncc34)o2)CC1 [GSK2269557, nemiralisib] | 0.8244 and 0.9667 and 0.8846
23 | CC(C)(C)c1cc(C(C)(C)C)c(NC(=O)c2c[nH]c3ccccc3c2=O)cc1O [Ivacaftor, ivacaftor] | 0.6365 and 0.6249 and 0.6449

same assay, conditions: compound at 5 uM, average of normalized cell number, n=3, relative to DMSO

Row | Compound | Average Cell Number (5 uM)
24 | CC(C)N1CCN(Cc2cnc(-c3cc(-c4cccc5[nH]ccc45)cc4[nH]ncc34)o2)CC1 [GSK2269557, nemiralisib] | 0.7914
25 | CC(C)(C)c1cc(C(C)(C)C)c(NC(=O)c2c[nH]c3ccccc3c2=O)cc1O [Ivacaftor, ivacaftor] | 0.735

same assay, conditions: compound at 5 uM, single replicate, raw cell count

Row | Compound | Cell Number (5 uM)
26 | CC(C)N1CCN(Cc2cnc(-c3cc(-c4cccc5[nH]ccc45)cc4[nH]ncc34)o2)CC1 [GSK2269557, nemiralisib] | 4568 and 3831 and 5671
27 | CC(C)(C)c1cc(C(C)(C)C)c(NC(=O)c2c[nH]c3ccccc3c2=O)cc1O [Ivacaftor, ivacaftor] | 4520 and 4563 and 3984

same assay, conditions: compound at 5 uM, single replicate, relative to negative control DMSO

Row | Compound | Normalized Cell Number (5 uM)
28 | CC(C)N1CCN(Cc2cnc(-c3cc(-c4cccc5[nH]ccc45)cc4[nH]ncc34)o2)CC1 [GSK2269557, nemiralisib] | 0.7708 and 0.6465 and 0.9569
29 | CC(C)(C)c1cc(C(C)(C)C)c(NC(=O)c2c[nH]c3ccccc3c2=O)cc1O [Ivacaftor, ivacaftor] | 0.7627 and 0.77 and 0.6723
